From ChEMBL document CHEMBL6096669, “Design and synthesis of novel derivatives of bisepoxylignans as potent anti-inflammatory agents involves the modulation of the M1/M2 microglia phenotype via TLR4/NF-κB signaling pathway” (Eur J Med Chem, 2025)
Active and inactive are the calls of the source. No cut-off for these calls is given here.

Experiments:
[1] = Cytotoxicity against mouse BV-2 cells assessed as cell viability at 10 uM measured after 24 hrs by MTT assay relative to control; type: toxicity, cell-based; conditions: read-out: Activity
[2] = Inhibition of LPS-induced NO production in mouse BV-2 cells at 10 uM measured after 24 hrs followed by induced with LPS for another 24 hrs by ELISA relative to control; type: functional
BV-2 [3] = experiment: Anti-neuroinflammatory activity against LPS-induced mouse BV-2 cells assessed as smaller cell bodies and morphology at 20 uM by bright field microscopy relative to LPS-induced control; type: functional, cell-based
BV-2 [4] = experiment: Inhibition of LPS-induced NO production in mouse BV-2 cells measured after 24 hrs followed by induced with LPS for another 24 hrs by ELISA relative to control; type: functional, cell-based
BV-2 [5] = experiment: Anti-inflammatory activity against LPS-induced mouse BV-2 cells assessed as decrease in LPS-induced iNOS mRNA expression at 5 uM incubated for 4 hrs followed by LPS induced for 12 hrs by RT-PCR analysis relative to control; type: functional, cell-based; conditions: time 16.0 hrs
BV-2 [6] = experiment: Anti-inflammatory activity against LPS-induced mouse BV-2 cells assessed as decrease in LPS-induced Cyclooxygenase-2 mRNA expression at 5 to 20 uM incubated for 4 hrs followed by LPS induced for 12 hrs by RT-PCR analysis relative to control; type: functional, cell-based; conditions: dose 5-20 µM, time 16.0 hrs
BV-2 [7] = experiment: Anti-inflammatory activity against LPS-induced mouse BV-2 cells assessed as decrease in LPS-induced TNF-alpha mRNA expression at 5 uM incubated for 4 hrs followed by LPS induced for 12 hrs by RT-PCR analysis relative to control; type: functional, cell-based; conditions: time 16.0 hrs
BV-2 [8] = experiment: Anti-inflammatory activity against LPS-induced mouse BV-2 cells assessed as decrease in LPS-induced TNF-alpha mRNA expression at 10 to 20 uM incubated for 4 hrs followed by LPS induced for 12 hrs by RT-PCR analysis relative to control; type: functional, cell-based; conditions: dose 10-20 µM, time 16.0 hrs
BV-2 [9] = experiment: Anti-inflammatory activity against LPS-induced mouse BV-2 cells assessed as decrease in LPS-induced IL-1beta mRNA expression at 5 uM incubated for 4 hrs followed by LPS induced for 12 hrs by RT-PCR analysis relative to control; type: functional, cell-based; conditions: time 16.0 hrs
BV-2 [10] = experiment: Anti-inflammatory activity against LPS-induced mouse BV-2 cells assessed as decrease in LPS-induced IL-1beta mRNA expression at 10 to 20 uM incubated for 4 hrs followed by LPS induced for 12 hrs by RT-PCR analysis relative to control; type: functional, cell-based; conditions: dose 10-20 µM, time 16.0 hrs
[11] = Acute toxicity in C57BL/6 mouse assessed as morphological changes in kidney by measuring signs of inflammation at 500 mg/kg, po single dose measured on day 8 by H and E staining based assay; type: organism-based; conditions: in vivo, 192 h, time 8 day
[12] = Acute toxicity in C57BL/6 mouse assessed as change in BUN level at 500 mg/kg, po single dose measured on day 8; type: organism-based; conditions: in vivo
[13] = Acute toxicity in C57BL/6 mouse assessed as change in ALT level at 500 mg/kg, po single dose measured on day 8 by ALT/GPT test kit; type: organism-based; conditions: in vivo
[14] = Biodistribution in C57BL/6 mouse liver at 20 mg/kg, IG measured after 15 mins; type: ADME, organism-based; conditions: in vivo, po, 0.25 h
[15] = Biodistribution in C57BL/6 mouse kidney at 20 mg/kg, IG measured after 15 mins; type: ADME, organism-based; conditions: in vivo, po, 0.25 h
[16] = Biodistribution in C57BL/6 mouse spleen at 20 mg/kg, IG measured after 15 mins; type: ADME, organism-based; conditions: in vivo, po, 0.25 h
[17] = Tmax in rat at 20 mg/kg, po single dose; type: ADME, organism-based; conditions: in vivo
[18] = AUCall in rat at 20 mg/kg, po single dose; type: ADME, organism-based; conditions: in vivo
[19] = AUMClast in rat at 20 mg/kg, po single dose; type: ADME, organism-based; conditions: in vivo
[20] = Ratio of AUC in brain to serum in rat at 20 mg/kg, po single dose; type: ADME, organism-based
Mus musculus [21] = experiment: Anti-neuroinflammatory activity against LPS-induced male C57BL/6 mouse assessed as suppression of LPS-induced IL-6 mRNA level at 20 mg/kg, po administered for 3 days followed by induced with LPS by tail vein injection by RT-PCR analysis; type: functional, organism-based; conditions: time 3.0 day
Mus musculus [22] = experiment: Anti-neuroinflammatory activity against LPS-induced male C57BL/6 mouse assessed as suppression of LPS-induced TNF-alphamRNA level at 20 mg/kg, po administered for 3 days followed by induced with LPS by tail vein injection by RT-PCR analysis; type: functional, organism-based; conditions: time 3.0 day
Mus musculus [23] = experiment: Anti-neuroinflammatory activity against LPS-induced male C57BL/6 mouse assessed as suppression of LPS-induced TLR4 protein level at 20 mg/kg, po administered for 3 days followed by induced with LPS by tail vein injection by Western blot analysis; type: functional, organism-based; conditions: time 3.0 day
Mus musculus [24] = experiment: Anti-neuroinflammatory activity against LPS-induced male C57BL/6 mouse assessed as suppression of LPS-induced pathological changes in heart at 20 mg/kg, po administered for 3 days followed by induced with LPS by tail vein injection by hematoxylin-eosin staining based assay; type: functional, organism-based; conditions: time 3.0 day
Mus musculus [25] = experiment: Anti-neuroinflammatory activity against LPS-induced male C57BL/6 mouse assessed as suppression of LPS-induced pathological changes in spleen at 20 mg/kg, po administered for 3 days followed by induced with LPS by tail vein injection by hematoxylin-eosin staining based assay; type: functional, organism-based; conditions: time 3.0 day
Mus musculus [26] = experiment: Anti-neuroinflammatory activity against LPS-induced male C57BL/6 mouse assessed as suppression of LPS-induced pathological changes in lung at 20 mg/kg, po administered for 3 days followed by induced with LPS by tail vein injection by hematoxylin-eosin staining based assay; type: functional, organism-based; conditions: time 3.0 day
Mus musculus [27] = experiment: Anti-neuroinflammatory activity against LPS-induced male C57BL/6 mouse assessed as suppression of LPS-induced pathological changes in kidney at 20 mg/kg, po administered for 3 days followed by induced with LPS by tail vein injection by hematoxylin-eosin staining based assay; type: functional, organism-based; conditions: time 3.0 day
Mus musculus [28] = experiment: Anti-neuroinflammatory activity against LPS-induced male C57BL/6 mouse assessed as suppression of LPS-induced pathological changes in liver at 20 mg/kg, po administered for 3 days followed by induced with LPS by tail vein injection by hematoxylin-eosin staining based assay; type: functional, organism-based; conditions: time 3.0 day
Mus musculus [29] = experiment: Anti-neuroinflammatory activity against LPS-induced male C57BL/6 mouse assessed as suppression of LPS-induced neuronal damage by measuring increase in Nissl bodies at 20 mg/kg, po administered for 3 days followed by induced with LPS by tail vein injection; type: functional, organism-based; conditions: time 3.0 day
Mus musculus [30] = experiment: Anti-neuroinflammatory activity against LPS-induced male C57BL/6 mouse assessed as suppression of LPS-induced microglial activation by measuring decrease in […] fluorescence intensity at 20 mg/kg, po administered for 3 days followed by induced with LPS by tail vein injection by immunofluorescence staining based assay; type: functional, organism-based; conditions: time 3.0 day
BV-2 [31] = experiment: Anti-inflammatory activity against LPS-induced mouse BV-2 cells assessed as decrease in LPS-induced Cyclooxygenase-2 production at 5 uM incubated for 4 hrs followed by LPS induced for 24 hrs by Western blotting analysis; type: functional, cell-based
Mus musculus [32] = experiment: Anti-neuroinflammatory activity against LPS-induced male C57BL/6 mouse assessed as suppression of LPS-induced p-I-kappaB-alpha protein level at 10 mg/kg, po administered for 3 days followed by induced with LPS by tail vein injection by Western blot analysis; type: functional, organism-based; conditions: time 3.0 day

Compound: O=c1[nH]c2ccc(Nc3ncnc4c3ccn4Cc3ccc(F)cc3)cc2[nH]1
- viability at 24 h, 10 µM [1]: 95.3%
- inhibition at 10 µM [2]: 95%
- Activity (BV-2 [3]): Active
- inhibition (BV-2 [4]): Active
- Activity (BV-2 [5]): Not active; No Significant Effect Observed Vs Lps
- Activity (BV-2 [6]): Active
- Activity (BV-2 [7]): Not active; No Significant Effect Observed Vs Lps
- Activity (BV-2 [8]): Active
- Activity (BV-2 [9]): Not active; No Significant Effect Observed Vs Lps
- Activity (BV-2 [10]): Active
- Activity [11]: Non-toxic
- Activity [12]: Non-toxic
- Activity [13]: Non-toxic
- Drug uptake [14]: Active
- Drug uptake [15]: Active
- Drug uptake [16]: Active
- Tmax [17]: 1 h
- AUC [18]: 43600 ng·h/mL
- AUMClast [19]: 269972.2 hr.hr.ng/ml
- Ratio [20]: 1.9%
- Activity (Mus musculus [21]): Active
- Activity (Mus musculus [22]): Active
- Activity (Mus musculus [23]): Active
- Activity (Mus musculus [24]): Active; Decreased Lps-Induced Visceral Injury (Cell Morphology, Hemorrhage, And Neutrophil Infiltration) And Maintaining Normal Cell Shape And Arrangement And Enhancing Infiltration Of Inflammatory Cells
- Activity (Mus musculus [25]): Active; Decreased Lps-Induced Visceral Injury (Cell Morphology, Hemorrhage, And Neutrophil Infiltration) And Maintaining Normal Cell Shape And Arrangement And Enhancing Infiltration Of Inflammatory Cells
- Activity (Mus musculus [26]): Active; Decreased Lps-Induced Visceral Injury (Cell Morphology, Hemorrhage, And Neutrophil Infiltration) And Maintaining Normal Cell Shape And Arrangement And Enhancing Infiltration Of Inflammatory Cells
- Activity (Mus musculus [27]): Active; Decreased Lps-Induced Visceral Injury (Cell Morphology, Hemorrhage, And Neutrophil Infiltration) And Maintaining Normal Cell Shape And Arrangement And Enhancing Infiltration Of Inflammatory Cells
- Activity (Mus musculus [28]): Active; Decreased Lps-Induced Visceral Injury (Cell Morphology, Hemorrhage, And Neutrophil Infiltration) And Maintaining Normal Cell Shape And Arrangement And Enhancing Infiltration Of Inflammatory Cells
- Activity (Mus musculus [29]): Active
- Activity (Mus musculus [30]): Active
- Activity (BV-2 [31]): Not active; No Significant Effect Observed Vs Lps
- Activity (Mus musculus [32]): Not active; No Significant Effect Observed Vs Lps
